# According to patent publication US20130197036A1, “TRANSDERMAL ABSORPTION PREPARATION” (priority 2010, published 2013):
# Columns and labels:
# [1] = system: fungi, azole antifungal agent-resistant fungi; conditions: Patent Document 1; cited from earlier work
# [2] = Octanol/water partition coefficient; format: physicochemical; conditions: in the range of pH 3 to 9
# Source text: However, the octanol/water partition coefficient of compound A in the range of pH 3 to 9 is less than 0.05, which greatly differs from the partition coefficient (100 to 1000) of a compound generally having high membrane permeability. Compound A tends to be difficult to permeate through a membrane. Thus, it is difficult to provide a transdermal preparation comprising compound A or a salt thereof and having transdermal absorbability sufficient to exert a pharmacological effect. A transdermal preparation of compound A or a salt thereof is not known.
structure (smiles),measurement,setting,value
"N=C(N)c1ccc(OCCCC2CCN(CCCOc3ccc(C(=N)N)cc3)CC2)cc1 [compound A, 4-{3-[4-(3-{4-[Amino(imino)methyl]phenoxy}propyl)-1-piperidinyl]propoxy}benzamidine]",antifungal activity (in words),[1],strong antifungal activity
same,octanol/water partition coefficient,[2],less than 0.05
